Columns and labels:
arNOX [1] = test: arNOX inhibition: superoxide formation measured by reduction of ferric cytochrome c, serum or buffy coats; assay type: biochemical
Experimental: Superoxide Production By Buffy Coats: Buffy coats, a mixture of lymphocytes and platelets. Such buffy coats are commercially available from, for example Rockland ImmunoChemicals (Gilbertsville, Pa.). The blood samples were maintained at 4° C. prior to collection and assay. Ca. 10^7 cells were added to each assay. Cell numbers were determined using a hemocytometer.
Reduction of ferric cytochrome c by superoxide was employed as a standard measure of superoxide formation (Mayo, L. A. and Cumutte, J. (1990) Meth. Enzyme. 186, 567-575. 7. Butler, J, Koppenol, W. H. and Margollash, E. (1982) J. Biol. Chem. 257, 10747). This is a widely accepted method when coupled to superoxide dismutase inhibition for the measurement of superoxide generation. The assay consists of 150 μl serum or 40 μl buffy coats in PBSG buffer (8.06 g NaCl, 0.2 g KCl, 0.18 g Na2HPO4, 0.26 g KH2PO4, 0.13 g CaCl2, 0.1 g MgCl2 1.35 g glucose dissolved in 1000 ml deionized water, adjusted to pH 7.4, filtered and stored at 4° C.) Rates were determined using an SLM Aminco DW-2000 spectrophotometer (Milton Roy, Rochester, N.Y., USA) in the dual wave length mode of operation with continuous measurements over 1 min every 1.5 min. After 45 min, test compounds were added and the reaction was continued for 45 min. After 45 min. A millimolar extinction coefficient of 19.1 cm^−1 was used for reduced ferricytochrome c. The results of the test compounds are provided in Table I. Extracts were made of the compounds in water unless otherwise indicated.

arNOX [2] = conditions: cited from earlier work

| SMILES | ArNOX ACTIVITY % OF NO ADDITION (arNOX [1]; Ethanol, 25 μg/ml) [%] | INHIBITION (−) or STIMULATION (+) (arNOX [1]; Ethanol, 25 μg/ml) [%] | arNOX activity of aging cells (arNOX [2]) | ArNOX ACTIVITY % OF NO ADDITION (arNOX [1]; Ethanol, 0.25 μg/ml) [%] | INHIBITION (−) or STIMULATION (+) (arNOX [1]; Ethanol, 0.25 μg/ml) [%] | ArNOX ACTIVITY % OF NO ADDITION (arNOX [1]; Ethanol, 2.5 μg/ml) [%] | INHIBITION (−) or STIMULATION (+) (arNOX [1]; Ethanol, 2.5 μg/ml) [%] | ArNOX ACTIVITY % OF NO ADDITION (arNOX [1]; Water, 25 μg/ml) [%] | INHIBITION (−) or STIMULATION (+) (arNOX [1]; Water, 25 μg/ml) [%] |
| --- | --- | --- | --- | --- | --- | --- | --- | --- | --- |
| CC1=C(/C=C/C(C)=C/C=C/C(C)=C/C=C/C=C(C)/C=C/C=C(C)/C=C/C2=C(C)C(=O)[C@@H](O)CC2(C)C)C(C)(C)C[C@H](O)C1=O [Natural astaxanthin, astaxanthin] | 62 | −38 | – | – | – | – | – | – | – |
| COC1=C(OC)C(=O)C(C/C=C(\C)CC/C=C(\C)CC/C=C(\C)CC/C=C(\C)CC/C=C(\C)CC/C=C(\C)CC/C=C(\C)CC/C=C(\C)CC/C=C(\C)CCC=C(C)C)=C(C)C1=O [co-enzyme Q, ubiquinone] | – | – | inhibited | – | – | – | – | – | – |
| CC1=C(/C=C/C(C)=C/C=C/C(C)=C/C=C/C=C(C)/C=C/C=C(C)/C=C/C2=C(C)CCCC2(C)C)C(C)(C)CCC1 [β-Carotene] | 68 | −32 | – | 73 | −42 | 50 | −50 | 28 | −72 |
